From patent US11016101B2, “Simplified nuclei analysis platform and biomarker matrix that supports genotoxic mode of action determinations” (Litron Laboratories, Ltd., priority 2013, dated 2021)
“Also recorded” adds a separate entry of the source. Counter-ions that a name gives are not always drawn. Like-named read-outs stand apart in the source and are kept apart here.

Assays:
TK6 cells [1] = assay: In vitro micronucleus assay (In Vitro MICROFLOW kit)
Method: The in vitro micronucleus assay is a chromosomal damage test that is widely used to evaluate chemical and/or physical agents for clastogenic and aneugenic activity. […] Furthermore, in the usual conduct of the in vitro micronucleus assay, the discrimination of bona fide genotoxic activity as primarily occurring through a clastogenic or aneugenic mode of action is not readily obtained.
For these experiments, each of the 20 chemicals was tested over closely spaced concentrations, 6 replicate wells per concentration. Three wells were used for the micronucleus analyses, and three wells were used for the several nuclear biomarker assessments of the type described in Example 1. Other endpoints of cytotoxicity were considered, including […], ethidium monoazide bromide (EMA) positive events as an indicator of membrane integrity, tetramethylrhodamine ethyl ester (TMRE) negative cells as an assessment of mitochondrial membrane potential, and ATP levels (using luciferase) as an assessment of overall cell health in the sample. […] Further details are described under Statistical Analyses, as well as Example 4 below.
Those cytotoxicity evaluations were based on a conventional approach for assessing cytotoxicity in genotoxicity tests, that is, relative cell counts (which in the case of the flow cytometry-based In Vitro MICROFLOW® kit is accomplished by measuring nuclei to counting bead ratio or else nuclei to time ratio and expressing these values relative to the mean solvent control value). […] The remaining three wells per concentration were used to accomplish a series of nuclei biomarker readings according to the invention, as well as two other assessments of cytotoxicity—frequency of TMRE-negative cells and ATP levels (via Promega's CELL TITERGLO® kit).

TK6 cells [2] = assay: Nuclei to bead ratio (relative cell count, cytotoxicity) by flow cytometry; format: cell-based
TK6 cells [3] = assay: Cleaved caspase 3-positive nuclei by flow cytometry; format: cell-based; details: for Caspase 3-Positive Nuclei (Fold-Increase): 24-27 hours, relative to Control
Source text: (§1) This chemical was also observed to affect cleaved PARP and Caspase 3 levels in nuclei, as evidenced by the higher values of cleaved PARP- and Caspase 3-positive nuclei relative to solvent control wells.

TK6 cells [4] = assay: Cleaved PARP-positive nuclei by flow cytometry; format: cell-based; details: for PARP-Positive Nuclei (Fold-Increase): 24-27 hours, relative to Control
Source text: as §1

TK6 cells [5] = format: cell-based
Method: This experiment highlights the ability of the invention to combine multiple nuclei-associated endpoints into one flow cytometric analysis. For this experiment, log-phase TK6 cells were treated with cisplatin over a wide range of concentrations and then incubated at 37° C. for 24 hours. Each concentration was studied in triplicate wells of a 96 well plate. After 24 hours, well contents were pipetted up and down several times to form homogenous suspensions, and 25 μl per well was added to wells of a new 96 well plate that contained 50 μl of working lysis/labeling/staining solution. This lysis/labeling/staining solution was comprised of 5 μl anti-γH2AX-Alexa® 488/ml, 1 μl anti-phospho-H3-PE/ml, 5 μl anti-cleaved PARP-Alexa® 647/ml, 5 μRNase/ml, […] Absolute Count Bead/50 μl

TK6 cells [6] = details: human
TK6 cells [7] = details: human; remark: listed apart in the source
Method: The TK6 cells used in these experiments were from American Type Tissue Collection (ATCC) (Manassas, Va.). Cells were maintained in culture medium at 37° C., 5% CO2, and in a humid atmosphere. Cells were maintained between approximately 1×10^4 and 1×10^6 cells/ml for routine passage.
For these experiments, TK6 cells were treated with solvent (most often DMSO, 1% v/v) and a range of closely spaced test article concentrations. Treatments occurred in wells of a 96-well plate. At the start of treatment, cells were at 2×10^5/ml in a volume of 300 μl per well. Counting beads (PEAK FLOW™) were included in these cultures at a concentration of approximately 1 drop per 10 ml, and served as a means to derive relative nuclei to bead ratios (relative to solvent controls). Continuous treatment occurred for approximately 24 hrs, during which time plates were incubated at 37° C., 5% CO2, and in a humid atmosphere. Each test article concentration was studied in 3 to 6 replicate wells.
The γH2AX endpoint described herein was studied 4 and/or 24-27 hrs after start of treatment. Each of the remaining endpoints were studied at the conclusion of the treatment period, that is 24 to 27 hrs after initiation of exposure to test article (which for this cell line corresponds to approximately 1.5 to 2.0 population doubling times).
At the time of cell harvest (4 hrs and 24 to 27 hrs), cells were resuspended with gentle pipetting and 25 μl aliquots were transferred to wells of a 96 well plate containing 50 μl pre-aliquoted lysis solution.
After incubation at room temperate for at least 5 minutes, samples were analyzed with a dual-laser flow cytometer, 488 nm and 633 nm excitation (FACSCanto II, BD Biosciences, San Jose, Calif.). Instrumentation settings and data acquisition/analysis were controlled with Diva software v6.1.3. […] The BD Biosciences High Throughput Sampler (HTS) attachment was used to automatically analyze each of the samples in the 96 well plate(s). For the majority of these endpoints and experiments, the stop mode was configured such that each well was analyzed for 5 seconds, which usually represented sufficient time to acquire at least 500 NAD-positive nuclei.
Treatments occurred over a range of closely spaced concentrations.

[8] = TK6 cells, continuous exposure 24-27 hrs, In Vitro MICROFLOW kits
[9] = 24-27 hours after start of treatment

O=c1[nH]cc(F)c(=O)[nH]1 [5-fluorouracil]
in vitro micronucleus results (TK6 cells [1]): positive

N#CC(C#N)=NNc1cccc(Cl)c1 [CCCP, carbonyl cyanide m-chlorophenyl hydrazone]
in vitro micronucleus results (TK6 cells [1]; [8]): positive
Nuclei to Bead Ratio (% of Control) (TK6 cells [2]; CCCP 3.125 μM, TK6 cells, 24-27 hours after start of treatment): 79 % of Control
Nuclei to Bead Ratio (% of Control) (TK6 cells [2]; CCCP 4.6875 μM, TK6 cells, 24-27 hours after start of treatment): 69 % of Control
Nuclei to Bead Ratio (% of Control) (TK6 cells [2]; CCCP 6.25 μM, TK6 cells, 24-27 hours after start of treatment): 64 % of Control
Nuclei to Bead Ratio (% of Control) (TK6 cells [2]; CCCP 9.375 μM, TK6 cells, 24-27 hours after start of treatment): 59 % of Control
Nuclei to Bead Ratio (% of Control) (TK6 cells [2]; CCCP 12.5 μM, TK6 cells, 24-27 hours after start of treatment): 50 % of Control
nuclei to bead ratios (effect in words) (TK6 cells [2]; TK6 cells, range of closely spaced concentrations, 24-27 hours, indicative of fewer cells and therefore cytotoxicity): concentration-dependent reductions
cleaved Caspase 3-positive nuclei relative to solvent control (effect in words) (TK6 cells [3]; [9]): visibly increased; also recorded: higher values
Caspase 3-Positive Nuclei (Fold-Increase) (TK6 cells [3]; CCCP 3.125 μM): 2.63 Fold-Increase
Caspase 3-Positive Nuclei (Fold-Increase) (TK6 cells [3]; CCCP 4.6875 μM): 4.33 Fold-Increase
Caspase 3-Positive Nuclei (Fold-Increase) (TK6 cells [3]; CCCP 6.25 μM): 5.86 Fold-Increase
Caspase 3-Positive Nuclei (Fold-Increase) (TK6 cells [3]; CCCP 9.375 μM): 9.13 Fold-Increase
Caspase 3-Positive Nuclei (Fold-Increase) (TK6 cells [3]; CCCP 12.5 μM): 18.83 Fold-Increase
cleaved PARP-positive nuclei relative to solvent control wells (effect in words) (TK6 cells [4]; [9]): higher values
PARP-Positive Nuclei (Fold-Increase) (TK6 cells [4]; CCCP 3.125 μM): 4.90 Fold-Increase
PARP-Positive Nuclei (Fold-Increase) (TK6 cells [4]; CCCP 4.6875 μM): 8.60 Fold-Increase
PARP-Positive Nuclei (Fold-Increase) (TK6 cells [4]; CCCP 6.25 μM): 12.1 Fold-Increase
PARP-Positive Nuclei (Fold-Increase) (TK6 cells [4]; CCCP 9.375 μM): 20.75 Fold-Increase
PARP-Positive Nuclei (Fold-Increase) (TK6 cells [4]; CCCP 12.5 μM): 34.45 Fold-Increase

N.N.[Cl][Pt][Cl] [Cisplatin, cisplatin]
in vitro micronucleus results (TK6 cells [1]): positive
absolute and relative nuclei counts (effect in words) (TK6 cells [5]): reduced in a cisplatin concentration-dependent manner
anti-cleaved PARP positive chromatin (effect in words) (TK6 cells [5]): increased in a cisplatin concentration-dependent manner
anti-phospho-H3 positive nuclei (effect in words) (TK6 cells [5]): reduced in a cisplatin concentration-dependent manner
other changes to cell cycle (effect in words) (TK6 cells [5]): accumulation of cells in the G2/M phase
shift in anti-γH2AX-associated fluorescence (effect in words) (TK6 cells [5]): increased in a cisplatin concentration-dependent manner

COS(C)(=O)=O [MMS, methyl methanesulfonate]
in vitro micronucleus results (TK6 cells [1]): positive
Phospho-H3+ Nuclei (Fold-Increase) (TK6 cells [6]; 2.344 μg/ml): 1.00 Fold-Increase
Phospho-H3+ Nuclei (Fold-Increase) (TK6 cells [6]; 3.125 μg/ml): 0.76 Fold-Increase
Phospho-H3+ Nuclei (Fold-Increase) (TK6 cells [6]; 4.6875 μg/ml): 0.67 Fold-Increase
Phospho-H3+ Nuclei (Fold-Increase) (TK6 cells [6]; 6.25 μg/ml): 0.71 Fold-Increase
Phospho-H3+ Nuclei (Fold-Increase) (TK6 cells [6]; 9.375 μg/ml): 0.76 Fold-Increase
Phospho-H3+ Nuclei (Fold-Increase) (TK6 cells [6]; 12.5 μg/ml): 0.65 Fold-Increase
γH2AX Fluorescence (Fold-Increase) (TK6 cells [7]; 2.344 μg/ml): 3.13 Fold-Increase
γH2AX Fluorescence (Fold-Increase) (TK6 cells [7]; 3.125 μg/ml): 4.11 Fold-Increase
γH2AX Fluorescence (Fold-Increase) (TK6 cells [7]; 4.6875 μg/ml): 4.36 Fold-Increase
γH2AX Fluorescence (Fold-Increase) (TK6 cells [7]; 6.25 μg/ml): 4.92 Fold-Increase
γH2AX Fluorescence (Fold-Increase) (TK6 cells [7]; 9.375 μg/ml): 4.79 Fold-Increase
γH2AX Fluorescence (Fold-Increase) (TK6 cells [7]; 12.5 μg/ml): 4.80 Fold-Increase
nuclei to bead ratios (effect in words) (TK6 cells [2]): concentration-dependent reductions
Nuclei to Bead Ratio (% of Control) (TK6 cells [2]; human, 2.344 μg/ml): 88 % of Control
Nuclei to Bead Ratio (% of Control) (TK6 cells [2]; human, 3.125 μg/ml): 87 % of Control
Nuclei to Bead Ratio (% of Control) (TK6 cells [2]; human, 4.6875 μg/ml): 83 % of Control
Nuclei to Bead Ratio (% of Control) (TK6 cells [2]; human, 6.25 μg/ml): 78 % of Control
Nuclei to Bead Ratio (% of Control) (TK6 cells [2]; human, 9.375 μg/ml): 64 % of Control
Nuclei to Bead Ratio (% of Control) (TK6 cells [2]; human, 12.5 μg/ml): 58 % of Control

CC[C@]1(O)C[C@@H]2CN(CCc3c([nH]c4ccccc34)[C@@](C(=O)OC)(c3cc4c(cc3OC)N(C)[C@H]3[C@@](O)(C(=O)OC)[C@H](OC(C)=O)[C@]5(CC)C=CCN6CC[C@]43[C@@H]65)C2)C1 [Vinblastine, vinblastine]
in vitro micronucleus results (TK6 cells [1]): positive
Phospho-H3+ Nuclei (Fold-Increase) (TK6 cells [6]; 0.3 ng/ml): .86 Fold-Increase
Phospho-H3+ Nuclei (Fold-Increase) (TK6 cells [6]; 0.4 ng/ml): .86 Fold-Increase
Phospho-H3+ Nuclei (Fold-Increase) (TK6 cells [6]; 0.6 ng/ml): 1.23 Fold-Increase
Phospho-H3+ Nuclei (Fold-Increase) (TK6 cells [6]; 0.8 ng/ml): 2.11 Fold-Increase
Phospho-H3+ Nuclei (Fold-Increase) (TK6 cells [6]; 1.2 ng/ml): 4.85 Fold-Increase
Phospho-H3+ Nuclei (Fold-Increase) (TK6 cells [6]; 1.6 ng/ml): 5.41 Fold-Increase
nuclei to bead ratios (effect in words) (TK6 cells [2]): concentration-dependent reductions
Nuclei to Bead Ratio (% of Control) (TK6 cells [2]; human, 0.3 ng/ml): 98 % of Control
Nuclei to Bead Ratio (% of Control) (TK6 cells [2]; human, 0.4 ng/ml): 97 % of Control
Nuclei to Bead Ratio (% of Control) (TK6 cells [2]; human, 0.6 ng/ml): 86 % of Control
Nuclei to Bead Ratio (% of Control) (TK6 cells [2]; human, 0.8 ng/ml): 81 % of Control
Nuclei to Bead Ratio (% of Control) (TK6 cells [2]; human, 1.2 ng/ml): 71 % of Control
Nuclei to Bead Ratio (% of Control) (TK6 cells [2]; human, 1.6 ng/ml): 58 % of Control

C[C@@]1(CO)[C@H](O)CC[C@@]2(C)[C@H]1CC[C@H]1C[C@@H]3C[C@@]12CC[C@]3(O)CO [aphidicoline]
in vitro micronucleus results (TK6 cells [1]; [8]): positive

Nc1ccn([C@@H]2O[C@H](CO)[C@@H](O)[C@@H]2O)c(=O)n1 [arabinofuranosyl cytidine]
in vitro micronucleus results (TK6 cells [1]; [8]): positive

CC[C@@]1(O)C(=O)OCc2c1cc1n(c2=O)Cc2cc3ccccc3nc2-1 [camptothecin]
in vitro micronucleus results (TK6 cells [1]; [8]): positive

COC(=O)Nc1nc2ccccc2[nH]1 [carbendazim]
in vitro micronucleus results (TK6 cells [1]): positive

CC/C(=C(/CC)c1ccc(O)cc1)c1ccc(O)cc1 [diethylstilbestrol]
in vitro micronucleus results (TK6 cells [1]; [8]): positive

COc1cc([C@@H]2c3cc4c(cc3[C@@H](O[C@@H]3O[C@@H]5CO[C@@H](C)O[C@H]5[C@H](O)[C@H]3O)[C@H]3COC(=O)[C@H]23)OCO4)cc(OC)c1O [etoposide]
in vitro micronucleus results (TK6 cells [1]): positive

NC(=O)NO [hydroxyurea]
in vitro micronucleus results (TK6 cells [1]): positive

COc1ccc(C2=N[C@@H](c3ccc(Cl)cc3)[C@@H](c3ccc(Cl)cc3)N2C(=O)N2CCNC(=O)C2)c(OC(C)C)c1 [nutlin-3]
in vitro micronucleus results (TK6 cells [1]; [8]): positive

[H]/N=C(/N)N/C(=N/[H])NCCc1ccccc1 [phenformin HCl]
in vitro micronucleus results (TK6 cells [1]; [8]): positive

tunicamycin
in vitro micronucleus results (TK6 cells [1]; [8]): positive
